Measurements as given in BindingDB's records for doi:10.7270/Q2057DDB (Nmmlsc, 2011).

Target: T1, Vacuolar aminopeptidase 1 (Saccharomyces cerevisiae (strain ATCC 204508 / S288c), UniProt P14904)
T1 sequence (P14904 whole entry): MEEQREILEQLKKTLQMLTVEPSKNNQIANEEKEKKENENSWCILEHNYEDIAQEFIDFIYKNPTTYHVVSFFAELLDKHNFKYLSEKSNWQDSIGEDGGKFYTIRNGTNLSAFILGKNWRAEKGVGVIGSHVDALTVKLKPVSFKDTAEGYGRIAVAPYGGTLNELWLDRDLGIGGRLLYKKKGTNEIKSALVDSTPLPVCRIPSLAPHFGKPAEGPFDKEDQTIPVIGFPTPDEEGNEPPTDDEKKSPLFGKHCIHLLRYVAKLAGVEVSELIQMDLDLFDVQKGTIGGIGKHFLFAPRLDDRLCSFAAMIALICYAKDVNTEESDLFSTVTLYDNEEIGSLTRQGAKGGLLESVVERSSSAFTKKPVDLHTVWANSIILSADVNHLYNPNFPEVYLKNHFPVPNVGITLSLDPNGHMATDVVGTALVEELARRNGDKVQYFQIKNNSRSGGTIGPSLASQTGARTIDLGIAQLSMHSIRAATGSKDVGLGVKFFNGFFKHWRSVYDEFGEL
Experiment: LAP4-GFP modulation potency, analog picks, SAR follow-up, cell-based, cherry pick 3, flow cytometry (AID 488823)
Details: not given

Row | EC50 [µM] | Structure (SMILES)
1 | 35.4 | NC(=O)c1ccnc2c(O)cccc12 [8-hydroxyquinoline-4-carboxamide;2,2,2-trifluoroacetic acid]

Same assay, conditions: inactive by the depositor's call

Row | EC50 [µM] | Structure (SMILES)
2 | 79.6 | Cn1cccc1C(=O)Nc1nc(-c2ccccn2)cs1 [SMR000064459]
3 | 35.9 | CCC(C)Nc1nc(N)c([N+](=O)[O-])c(Nc2ccccc2OC)n1 (stereo not drawn) [SMR000434817]
4 | 105 | CCc1sc(C(=O)Nc2nc(-c3ccccn3)cs2)cc1C [SMR001314827]

The remaining lines, values behind:

Row | Structure (SMILES) | EC50 [µM]
5 | CCOC(=O)CS(=O)(=O)c1nc(-c2ccccc2)cc(C(F)(F)F)n1 [2-[4-phenyl-6-(trifluoromethyl)pyrimidin-2-yl]sulfonylacetic acid ethyl ester] | 41.2
6 | COc1cccc2c(Cl)c(CCCl)c(C)nc12 [MLS000720591] | 86.4
7 | Oc1ccc(Cl)c2cccnc12 [MLS002695956] | 208
8 | CCC(C)Nc1nc(N)c([N+](=O)[O-])c(Nc2cc(OC)ccc2OC)n1 (stereo not drawn) [N2-butan-2-yl-N4-(2,5-dimethoxyphenyl)-5-nitro-pyrimidine-2,4,6-triamine] | 37.3
